Consider seven compounds from ChEMBL document CHEMBL1201862, “PubChem BioAssay data set” (2004).

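Dose response: 5 concentrations. Exposure: 48 h. Format: 96-well plates. Endpoint: linear interpolation; highest concentration if not reached. GI50 is the concentration that inhibits growth by half.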 Active and inactive are the calls of the source. Rule as the data show it: active = GI50 up to about 1.1 µM and inactive = higher.

What all share (assay): NCI-60 cell line screen, 48 h
The subject of test [1] is BT-549.
The test system of test [2] is CAKI-1.
The test system of test [3] is COLO 205.
The subject of test [4] is DU-145.
The test system of test [5] is HCC 2998.
The subject of test [6] is HCT-15.
The test system of test [7] is HT-29.
For test [8], the system named is KM12.
The subject of test [9] is MDA-MB-435.
Test [10] relates to NCI-H226.
Test [11] deals with NCI-H23.
The test system of test [12] is OVCAR-3.
Test [13] has as its system OVCAR-4.
The test system of test [14] is OVCAR-8.
The test system of test [15] is RXF 393.
In test [16] the test system is SF-268.
The subject of test [17] is SF-295.
For test [18], the system named is SW-620.
In test [19] the test system is T47D.
Test [20] has as its system U-251.

Turning to `COc1cccc(C2c3cc4c(cc3OC(NNC(N)=O)C2C)OCO4)c1O` (stereo not given), the GI50 is 33 µM (inactive) in test [1]; 3.11 µM (inactive) in [2]; 1.78 µM (inactive) in test [3]; 4.25 µM (inactive) in test [4]; 1.8 µM (inactive) in test [5]; 1.08 µM in test [6]. For the same compound, the GI50 in test [7] is 1.7 µM (inactive); in [8] it was 0.731 µM (active); in [9], 0.216 µM (active); in [10] it was 2 µM (inactive); in [11], 3.17 µM (inactive); in test [12], 0.783 µM (active). Moreover, the GI50 in test [13] was 38.8 µM (inactive); in [14] it was 2.46 µM (inactive); in test [15], 0.766 µM (active); in test [16] it was 3.37 µM (inactive); in test [17], 0.593 µM (active); in [18], 0.569 µM (active). The values for the GI50 in [19] and in test [20] were 61 µM (inactive) and 1.07 µM (active), respectively.

`COc1cc2c(cc1OC)C/C(=N\O)c1cc(OC)c(OC)cc1/C=C\2`: the GI50 in [1] was 28.7 µM (inactive); in test [2] it was 3.61 µM (inactive); in test [3], 4.91 µM (inactive); in test [4], 4.49 µM (inactive); in [5], 2.95 µM (inactive); in test [6], 5.31 µM. In addition, the GI50 in test [7] is 3.67 µM (inactive); in test [8], 5.2 µM (inactive); in [9] it was 0.822 µM (active); in test [10], 5.56 µM (inactive); in test [11], 14.2 µM (inactive); in test [12] it was 3.67 µM (inactive). Moreover, the GI50 was 55.5 µM (inactive) in test [13]; 10.4 µM (inactive) in test [14]; 5.25 µM (inactive) in [15]; 6.24 µM (inactive) in [16]; 3.74 µM (inactive) in [17]; 3.48 µM (inactive) in [18]. The values for the GI50 in test [19] and in test [20] were 10.6 µM (inactive) and 4.66 µM (inactive), respectively.

On to `COc1ccc(O)c(/C=N/NC(=S)N2CCCCC2)c1`, for which the GI50 in [1] is 3.77 µM (inactive); in [2], 2.72 µM (inactive); in [3], 2.98 µM (inactive); in [4], 1.74 µM (inactive); in test [5], 1.87 µM (inactive); in test [6] it was 0.611 µM. Further, the GI50 in test [7] is 8.17 µM (inactive); in [8], 4.38 µM (inactive); in test [9], 6.07 µM (inactive); in [10], 1.07 µM (active); in test [11] it was 2.15 µM (inactive); in test [12], 0.319 µM (active). For the same compound, the GI50 in test [13] was 4.59 µM (inactive); in [14] it was 1.86 µM (inactive); in [15], 7.73 µM (inactive); in test [16] it was 0.948 µM (active); in [17], 3.33 µM (inactive); in test [18] it was 2.88 µM (inactive). For the same compound, the GI50 in test [19] was 6.71 µM (inactive); in test [20] it was 1.85 µM (inactive).

On to `CN(CC(N)=O)C(=O)N(CCCl)N=O` [SARCNU], for which the GI50 in [1] is > 100 µM (inactive); in test [2], > 100 µM (inactive); in test [3], > 100 µM (inactive); in [4] it was > 100 µM (inactive); in [5] it was > 100 µM (inactive); in test [6], above 100 µM. The GI50 in test [7] was > 100 µM (inactive); in [8], > 100 µM (inactive); in test [9], > 100 µM (inactive); in test [10], 67.9 µM (inactive); in test [11], > 100 µM (inactive); in [12], > 100 µM (inactive). For the same compound, the GI50 was > 100 µM (inactive) in [13]; > 100 µM (inactive) in test [14]; > 100 µM (inactive) in test [15]; 27.2 µM (inactive) in test [16]; > 76.7 µM (inactive) in test [17]; > 100 µM (inactive) in test [18]. For the same compound, the GI50 in test [19] and in test [20] was > 100 µM (inactive) in each case.

`C[C@H](NC(=O)C(Cc1ccccc1)(Cc1ccc(O)cn1)NC(=O)c1ccccc1)c1ccccc1` (stereo not given in full): the GI50 was 18.1 µM (inactive) in test [1]; 26.9 µM (inactive) in test [2]; 19.1 µM (inactive) in test [3]; 18.6 µM (inactive) in test [4]; 16.5 µM (inactive) in [5]; 18 µM in [6]. For the same compound, the GI50 in test [7] is 17.5 µM (inactive); in test [8], 19.8 µM (inactive); in test [9], 16.5 µM (inactive); in test [10], 19.7 µM (inactive); in test [11], 22 µM (inactive); in [12], 14.7 µM (inactive). Also, the GI50 in test [13] was 15.1 µM (inactive); in test [14], 20.4 µM (inactive); in test [15], 14.3 µM (inactive); in test [16], 18.2 µM (inactive); in [17], 14.6 µM (inactive); in test [18] it was 22.5 µM (inactive). Moreover, the GI50 was 18.5 µM (inactive) in test [19] and 15.3 µM (inactive) in test [20].

Regarding `NCCCCN(CCCN)C(=O)c1ccccc1`, the GI50 in test [1] was > 100 µM (inactive); in test [2], > 100 µM (inactive); in test [3] it was > 100 µM (inactive); in test [4], > 100 µM (inactive); in [5], > 100 µM (inactive); in test [6], above 100 µM. Also, the GI50 in [7], in test [8], in test [9], in test [10], in test [11] and in test [12] was > 100 µM (inactive) in each case. Also, the GI50 in test [13], in [14], in test [15], in test [16], in test [17] and in test [18] was > 100 µM (inactive) each time. In addition, the GI50 in test [19] and in test [20] was > 100 µM (inactive) in each case.

Consider `CC12NC(=C(C#N)C#N)C(C#N)=C3NC(N)=C(C#N)C(=C31)Oc1ccccc12` (stereo not given), for which the GI50 is > 24.8 µM (inactive) in test [1]; > 29.4 µM (inactive) in test [2]; 4.71 µM (inactive) in [3]; 10.1 µM (inactive) in test [4]; 27.4 µM (inactive) in [5]; 28.8 µM in test [6]. The GI50 in test [7] is 7.06 µM (inactive); in test [8], 3.77 µM (inactive); in test [9], > 30.1 µM (inactive); in test [10], 43.6 µM (inactive); in test [11] it was 6.85 µM (inactive); in test [12] it was 4.2 µM (inactive). Moreover, the GI50 was 62.1 µM (inactive) in test [13]; 10.9 µM (inactive) in test [14]; 2.53 µM (inactive) in [15]; 10.4 µM (inactive) in test [16]; 20 µM (inactive) in test [17]; > 26.6 µM (inactive) in test [18]. Further, the GI50 in test [19] is > 79.1 µM (inactive); in test [20], 18.1 µM (inactive).
